# US20180093956A1, “SUBSTITUTED PHTHALAZINES” (AbbVie Inc., priority 2015, published 2018)
# pIC50: −log10 of the molar value.
# Biological target: SUV420H1 enzyme (Homo sapiens, UniProt Q4FZB7)
# Assay: TR-FRET SAH SUV420H1 enzyme inhibition assay
# Format: biochemical
# Conditions: Histone Peptide H4(8-30)me1 and SAM, TR-FRET detection of SAH, read-out: TR-FRET SAH_SUV420H1 IC50
# Protocol: Test compounds were dispensed by a Labcyte Echo in 384-well low volume assay plates with 3-fold serial dilutions from 50 μM to 0.00075 μM. 5 μL of SUV420H1 enzyme (Abbvie) at 90 nM was added to all wells except for the no enzyme control wells and incubated for 30 minutes at room temperature before 5 μL of Histone Peptide H4(8-30)me1 (Anaspec) at 5 μM and SAM at 4 μM was added to all wells. The plates were incubated in a humidified chamber overnight at room temp and then 10 μL of the detection reagent that contained RIPA buffer (50 mM Tris-HCl, pH 8.0, 150 mM sodium chloride, 1.0% Igepal CA-630 (NP-40), 0.5% sodium deoxycholate and 0.1% sodium dodecyl sulfate) (Sigma) with 2 nM of Terbium chelate anti S-adenosyl-L-homocysteine (SAH) (Abbvie) antibody and Oregon Green labeled SAH at 4 nM was added. The plates were further incubated for 4 hours at room temperature. The plates were read in a Perkin Elmer Envision using a TR-FRET protocol with Excitation set at 335 nm and Emission at 520 and 495 nm. To generate dose response curves the data is normalized to percent inhibition by setting the average of the plus and minus enzyme control wells to 0% and 100% inhibition respectively. The ICso values for the compounds are generated by fitting the normalized data with Accelrys Assay Explorer 3.3 to a sigmoidal curve model using […], Y=(100*x^n)/(K^n+x^n), where Y is the measured response, x is the compound concentration, n is the Hill Slope and K is the IC50 and the lower and higher asymptotes are constrained to 0 and 100 respectively.
# SUV420H1 enzyme, sequence (Q4FZB7 whole entry): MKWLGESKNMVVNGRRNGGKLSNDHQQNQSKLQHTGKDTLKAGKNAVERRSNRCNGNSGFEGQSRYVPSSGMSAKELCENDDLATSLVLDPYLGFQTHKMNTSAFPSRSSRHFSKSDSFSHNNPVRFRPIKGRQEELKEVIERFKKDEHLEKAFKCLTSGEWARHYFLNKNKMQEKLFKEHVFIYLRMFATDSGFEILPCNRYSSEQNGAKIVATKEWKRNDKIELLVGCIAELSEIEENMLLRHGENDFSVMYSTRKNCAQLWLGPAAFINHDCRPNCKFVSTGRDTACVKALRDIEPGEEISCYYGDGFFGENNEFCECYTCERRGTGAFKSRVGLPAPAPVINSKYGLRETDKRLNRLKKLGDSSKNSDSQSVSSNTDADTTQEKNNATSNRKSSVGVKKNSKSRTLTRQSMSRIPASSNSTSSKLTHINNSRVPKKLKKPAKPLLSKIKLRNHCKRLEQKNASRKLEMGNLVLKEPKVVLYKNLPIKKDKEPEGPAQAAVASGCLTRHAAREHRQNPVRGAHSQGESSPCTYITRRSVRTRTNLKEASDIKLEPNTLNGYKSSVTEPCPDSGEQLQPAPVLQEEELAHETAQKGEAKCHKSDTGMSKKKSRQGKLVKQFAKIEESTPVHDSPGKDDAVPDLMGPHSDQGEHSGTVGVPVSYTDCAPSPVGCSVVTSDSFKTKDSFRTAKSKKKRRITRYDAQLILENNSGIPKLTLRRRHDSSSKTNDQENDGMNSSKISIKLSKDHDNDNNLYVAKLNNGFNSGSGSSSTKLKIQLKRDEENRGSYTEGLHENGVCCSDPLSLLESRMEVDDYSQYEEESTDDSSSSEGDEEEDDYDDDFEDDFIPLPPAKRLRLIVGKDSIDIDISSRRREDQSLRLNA
row,pIC50,Compound
1,5.96,"CC(=O)N1CC=C(c2nnc(NC3CCCC3)c3cc(Cl)c(Cl)cc23)CC1 [Example 25, 1-{4-[6,7-dichloro-4-(cyclopentylamino)phthalazin-1-yl]-3,6-dihydropyridin-1(2H)-yl}ethanone]"
2,6.00,"Clc1cc2c(NC3CCCC3)nnc(-c3ccc(N4CCOCC4)nc3)c2cc1Cl [Example 22, 6,7-dichloro-N-cyclopentyl-4-[6-(morpholin-4-yl)pyridin-3-yl]phthalazin-1-amine]"
3,5.46,"OCCNc1cc(-c2nnc(NC3CCCC3)c3cc(Cl)c(Cl)cc23)ccn1 [Example 39, 2-({4-[6,7-dichloro-4-(cyclopentylamino)phthalazin-1-yl]pyridin-2-yl}amino)ethanol]"
4,5.42,"O=C(c1nnc(NC2CCCC2)c2cc(Cl)c(Cl)cc12)N1CCCC1 [Example 47, [6,7-dichloro-4-(cyclopentylamino)phthalazin-1-yl](pyrrolidin-1-yl)methanone]"
5,6.35,"CS(=O)(=O)N1CC=C(c2nnc(NC3CCCC3)c3cc(Cl)c(Cl)cc23)CC1 [Example 67, 6,7-dichloro-N-cyclopentyl-4-[1-(methylsulfonyl)-1,2,3,6-tetrahydropyridin-4-yl]phthalazin-1-amine]"
6,5.82,"CC(C)(C)OC(=O)N1CC=C(c2nnc(NC3CCCC3)c3cc(Cl)c(Cl)cc23)CC1 [Example 23, tert-butyl 4-[6,7-dichloro-4-(cyclopentylamino)phthalazin-1-yl]-3,6-dihydropyridine-1(2H)-carboxylate]"
7,5.65,"O=C1CCC(C(=O)N2CC=C(c3nnc(NC4CCCC4)c4cc(Cl)c(Cl)cc34)CC2)C1 (stereo not drawn) [Example 81, 3-({4-[6,7-dichloro-4-(cyclopentylamino)phthalazin-1-yl]-3,6-dihydropyridin-1(2H)-yl}carbonyl)cyclopentanone]"
8,5.09,"O=C(c1nnc(NC2CCCC2)c2cc(Cl)c(Cl)cc12)N1CCOCC1 [Example 51, [6,7-dichloro-4-(cyclopentylamino)phthalazin-1-yl](morpholin-4-yl)methanone]"
9,6.16,"O=C(C1CCC(O)C1)N1CC=C(c2nnc(NC3CCCC3)c3cc(Cl)c(Cl)cc23)CC1 (stereo not drawn) [Example 84, {4-[6,7-dichloro-4-(cyclopentylamino)phthalazin-1-yl]-3,6-dihydropyridin-1(2H)-yl}(3-hydroxycyclopentyl)methanone]"
10,6.08,"Fc1cc(-c2nnc(NC3CCCC3)c3cc(Cl)c(Cl)cc23)ccn1 [Example 12, 6,7-dichloro-N-cyclopentyl-4-(2-fluoropyridin-4-yl)phthalazin-1-amine]"
11,6.24,"OC1CCN(c2ccc(-c3nnc(NC4CCCC4)c4cc(Cl)c(Cl)cc34)cn2)CC1 [Example 28, 1-{5-[6,7-dichloro-4-(cyclopentylamino)phthalazin-1-yl]pyridin-2-yl}piperidin-4-ol]"
12,6.17,"CS(=O)(=O)CC(=O)N1CC=C(c2nnc(NC3CCCC3)c3cc(Cl)c(Cl)cc23)CC1 [Example 82, 1-{4-[6,7-dichloro-4-(cyclopentylamino)phthalazin-1-yl]-3,6-dihydropyridin-1(2H)-yl}-2-(methylsulfonyl)ethanone]"
13,6.59,"O=C(O)Cn1cc(-c2nnc(NC3CCCC3)c3cc(Cl)c(Cl)cc23)cn1 [Example 44, {4-[6,7-dichloro-4-(cyclopentylamino)phthalazin-1-yl]-1H-pyrazol-1-yl}acetic acid]"
14,5.84,"CN1CCN(c2ccc(-c3nnc(NC4CCCC4)c4cc(Cl)c(Cl)cc34)cn2)CC1 [Example 21, 6,7-dichloro-N-cyclopentyl-4-[6-(4-methylpiperazin-1-yl)pyridin-3-yl]phthalazin-1-amine]"
15,6.09,"O=S1(=O)CCN(c2ccc(-c3nnc(NC4CCCC4)c4cc(Cl)c(Cl)cc34)cn2)CC1 [Example 41, 6,7-dichloro-N-cyclopentyl-4-[6-(1,1-dioxidothiomorpholin-4-yl)pyridin-3-yl]phthalazin-1-amine]"
16,5.58,"O[C@@H]1CC[C@H](Nc2nnc(Cl)c3cc(Cl)c(Cl)cc23)C1 (racemic) [Example 13, rac-(1R,3S)-3-[(4,6,7-trichlorophthalazin-1-yl)amino]cyclopentanol]"
17,5.88,"Clc1cc2c(NC3CCCC3)nnc(-c3ccc(N4CCNCC4)nc3)c2cc1Cl [Example 27, 6,7-dichloro-N-cyclopentyl-4-[6-(piperazin-1-yl)pyridin-3-yl]phthalazin-1-amine]"
18,4.32,"Clc1cc2c(NC3CCCC3)nnc(N3CCOCC3)c2cc1Cl [Example 10, 6,7-dichloro-N-cyclopentyl-4-(morpholin-4-yl)phthalazin-1-amine]"
19,5.22,"CN1CCN(C(=O)c2nnc(NC3CCCC3)c3cc(Cl)c(Cl)cc23)CC1 [Example 49, [6,7-dichloro-4-(cyclopentylamino)phthalazin-1-yl](4-methylpiperazin-1-yl)methanone]"

# Further lines, the compound ahead of its results:
row,Compound,pIC50
1,"O=C(Cn1cc(-c2nnc(NC3CCCC3)c3cc(Cl)c(Cl)cc23)cn1)N1CCOCC1 [Example 65, 2-{4-[6,7-dichloro-4-(cyclopentylamino)phthalazin-1-yl]-1H-pyrazol-1-yl}-1-(morpholin-4-yl)ethanone]",6.26
2,"O=C(Cn1cc(-c2nnc(NC3CCCC3)c3cc(Cl)c(Cl)cc23)cn1)N1CCC(O)C1 (stereo not drawn) [Example 59, 2-{4-[6,7-dichloro-4-(cyclopentylamino)phthalazin-1-yl]-1H-pyrazol-1-yl}-1-(3-hydroxypyrrolidin-1-yl)ethanone]",6.12
3,"O=C(c1nnc(NC2CCCC2)c2cc(Cl)c(Cl)cc12)N1CCC(O)CC1 [Example 52, [6,7-dichloro-4-(cyclopentylamino)phthalazin-1-yl](4-hydroxypiperidin-1-yl)methanone]",4.89
4,"O=S(=O)(c1ccccc1)N1CC=C(c2nnc(NC3CCCC3)c3cc(Cl)c(Cl)cc23)CC1 [Example 69, 6,7-dichloro-N-cyclopentyl-4-[1-(phenylsulfonyl)-1,2,3,6-tetrahydropyridin-4-yl]phthalazin-1-amine]",5.63
5,"Clc1cc2c(NC3CCCC3)nnc(C3=CCNCC3)c2cc1Cl [Example 24, 6,7-dichloro-N-cyclopentyl-4-(1,2,3,6-tetrahydropyridin-4-yl)phthalazin-1-amine]",5.89
6,"O=C(Nc1ccccc1)c1nnc(NC2CCCC2)c2cc(Cl)c(Cl)cc12 [Example 53, 6,7-dichloro-4-(cyclopentylamino)-N-phenylphthalazine-1-carboxamide]",5.87
7,"OC1CCN(c2ccc(-c3nnc(NC4CCCC4)c4cc(Cl)c(Cl)cc34)cn2)C1 (stereo not drawn) [Example 34, 1-{5-[6,7-dichloro-4-(cyclopentylamino)phthalazin-1-yl]pyridin-2-yl}pyrrolidin-3-ol]",5.56
8,"NC(=O)CC(=O)N1CC=C(c2nnc(NC3CCCC3)c3cc(Cl)c(Cl)cc23)CC1 [Example 83, 3-{4-[6,7-dichloro-4-(cyclopentylamino)phthalazin-1-yl]-3,6-dihydropyridin-1(2H)-yl}-3-oxopropanamide]",6.09
9,"O=C(c1nnc(NC2CCCC2)c2cc(Cl)c(Cl)cc12)N1CCS(=O)(=O)CC1 [Example 50, [6,7-dichloro-4-(cyclopentylamino)phthalazin-1-yl](1,1-dioxidothiomorpholin-4-yl)methanone]",5.30
10,"Clc1cc2c(NC3CCCC3)nnc(-c3ccc(CN4CCOCC4)cc3)c2cc1Cl [Example 14, 6,7-dichloro-N-cyclopentyl-4-[4-(morpholin-4-ylmethyl)phenyl]phthalazin-1-amine]",4.72
11,"Clc1cc2c(NC3CCCC3)nnc(-c3ccnc(N4CCCC4)c3)c2cc1Cl [Example 15, 6,7-dichloro-N-cyclopentyl-4-[2-(pyrrolidin-1-yl)pyridin-4-yl]phthalazin-1-amine]",< 4.30
12,"Clc1cc2c(NC3CCCC3)nnc(N3CCCC3)c2cc1Cl [Example 11, 6,7-dichloro-N-cyclopentyl-4-(pyrrolidin-1-yl)phthalazin-1-amine]",< 4.30
13,"Clc1cc2c(NC3CCCC3)nnc(-c3ccnc(N4CCOCC4)c3)c2cc1Cl [Example 17, 6,7-dichloro-N-cyclopentyl-4-[2-(morpholin-4-yl)pyridin-4-yl]phthalazin-1-amine]",5.13
14,"O=C(Cn1cc(-c2nnc(NC3CCCC3)c3cc(Cl)c(Cl)cc23)cn1)N1CCS(=O)(=O)CC1 [Example 63, 2-{4-[6,7-dichloro-4-(cyclopentylamino)phthalazin-1-yl]-1H-pyrazol-1-yl}-1-(1,1-dioxidothiomorpholin-4-yl)ethanone]",6.68
15,"CN(CCO)C(=O)c1nnc(NC2CCCC2)c2cc(Cl)c(Cl)cc12 [Example 46, 6,7-dichloro-4-(cyclopentylamino)-N-(2-hydroxyethyl)-N-methylphthalazine-1-carboxamide]",5.26
16,"6,7-dichloro-4-(cyclopentylamino)phthalazine-1-carboxylic acid [Example 38]",5.06
17,"Clc1cc2c(NC3CCCC3)nnc(-c3ccccc3)c2cc1Cl [Example 2, 6,7-dichloro-N-cyclopentyl-4-phenylphthalazin-1-amine]",4.54
